Assay results reported in patent US7030213B2, “Conformationally stabilized cell adhesion peptides” (La Jolla Cancer Research Institute, priority 1987, dated 2006).
Primed or numbered codes have the meaning given here. Where no end group is shown, it is not given here. [ ]: non-standard residue; d: D form. Pen′ = Penicillamine

Assays:
[1] = system: attachment of normal rat kidney cells to vitronectin; assay: Cell adhesion assay: inhibition of attachment of normal rat kidney cells to vitronectin; format: cell-based; settings: normal rat kidney cells on vitronectin-coated wells, peptide 0 to 10.0 mM, 1 hour at 37° C., FIG. 2
Method: (§1) Fibronectin and vitronectin were purified from human plasma according to the methods of Ruoslahti et al., (1982) Meth. Enz. 82:803; and Hayman et al., (1983) PNAS 80:4003, respectively, both of which are incorporated herein by reference. The adhesion of normal rat kidney cells to fibronectin and vitronectin was assayed as described, in Ruoslahti et al., Meth. Enz. supra. Briefly, 0.1 ml solution of fibronectin or vitronectin at a concentration of 12 μg/ml in 0.1M PBS was placed in each well of 96-well plastic microtiter plates and left for 2 hours at room temperature. The unattached protein was removed by washing three times with PBS.
(§2) One day before the assay, a confluent culture of normal rat kidney cells was split 1:2 using standard tissue culture trypsin. The cells were washed three times with PBS, pH 7.2. […] Before the last centrifugation, a sample was taken and cell numbers and viability by trypan blue exclusion are determined. […]
(§3) The unattached cells were removed simply by removing the medium and washing the wells. […] The cells were then fixed with 3% paraformaldehyde in PBS and stained with 1% toluidine blue, paraformaldehyde in PBS, and attached cells counted. Their number was determined using a cell counter that is capable of counting cells attached to a surface (Dynatech Laboratories, Alexandria, Va.). […]

[2] = system: attachment of normal rat kidney cells to fibronectin; assay: Cell adhesion assay: inhibition of attachment of normal rat kidney cells to fibronectin; format: cell-based; settings: normal rat kidney cells on fibronectin-coated wells; peptide 0 to 10.0 mM; 1 hour at 37° C.; FIG. 2
Method: as §1, §2, §3

Substance	molar concentration inhibiting attachment to vitronectin, lower than the linear peptide ([1]; relative to linear peptide)	inhibition of attachment to fibronectin [2]	inhibition of attachment to vitronectin [1]
Gly-Pen-Gly-Arg-Gly-Asp-Ser-Pro-Cys-Ala [cyclic peptide]	10 fold	ineffective	–
Gly-Pen-Gly-Arg-Gly-Asp-Ser-Pro-Cys (G[Pen′]GRGDSPC; cysteine pairing not given here) [linear peptide, non-cyclized, or linear, peptide used as comparator]	–	inhibited attachment of cells to both substrates at relatively similar concentrations	inhibited attachment of cells to both substrates at relatively similar concentrations
